Where two headings read alike, the source gives them in different places.
Tests used:
[1] = system: HEK-Mock cells; assay: CellTiter-Blue cell viability assay with HEK-Mock cells; assay type: cell-based; settings: Homo sapiens, 72 h
[2] = system: MCF-7; assay: CellTiter-Blue cell viability assay: MCF-7; assay type: cell-based; settings: Homo sapiens
[3] = molecular target: T1, FAP (Mus musculus, UniProt P97321); assay: Inhibition of FAP activity on HEK-mFAP cells; assay type: cell-based; settings: 5061DOX assay 3
T1 construct: host or cells: HEK (human embryonic kidney) cells, stably transfected
T1 sequence (P97321 1-761): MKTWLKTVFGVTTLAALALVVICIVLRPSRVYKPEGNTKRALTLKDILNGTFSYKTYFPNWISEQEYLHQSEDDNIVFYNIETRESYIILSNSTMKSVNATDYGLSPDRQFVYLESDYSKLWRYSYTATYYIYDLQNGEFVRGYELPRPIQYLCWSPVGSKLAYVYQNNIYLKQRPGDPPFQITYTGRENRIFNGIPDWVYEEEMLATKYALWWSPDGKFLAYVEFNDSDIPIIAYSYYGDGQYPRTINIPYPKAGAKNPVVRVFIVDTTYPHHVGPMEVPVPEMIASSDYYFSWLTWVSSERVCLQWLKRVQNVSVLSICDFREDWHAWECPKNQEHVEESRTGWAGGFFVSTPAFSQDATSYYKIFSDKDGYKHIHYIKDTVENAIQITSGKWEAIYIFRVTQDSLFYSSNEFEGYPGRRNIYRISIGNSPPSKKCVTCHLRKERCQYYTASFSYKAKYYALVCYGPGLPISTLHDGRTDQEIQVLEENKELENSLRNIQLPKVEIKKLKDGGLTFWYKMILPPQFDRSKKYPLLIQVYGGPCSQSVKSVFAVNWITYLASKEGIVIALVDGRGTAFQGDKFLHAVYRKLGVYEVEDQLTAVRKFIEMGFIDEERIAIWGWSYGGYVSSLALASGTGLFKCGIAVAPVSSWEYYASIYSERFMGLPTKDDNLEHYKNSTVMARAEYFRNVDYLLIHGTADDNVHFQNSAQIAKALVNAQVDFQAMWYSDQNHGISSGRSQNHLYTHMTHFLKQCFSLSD

[4] = system: HEK-mFAP cells; assay: CellTiter-Blue cell viability assay with HEK-mFAP cells; assay type: cell-based, human
[5] = system: OVCAR-3; assay: CellTiter-Blue cell viability assay: OVCAR-3; assay type: cell-based; settings: Homo sapiens, 5061DOX assay 2, 72 hour incubation
[6] = system: SK-OV-3; assay: CellTiter-Blue cell viability assay: SK-OV-3; assay type: cell-based; settings: Homo sapiens, 5061DOX assay 2, 72 hour incubation
[7] = system: HT-29; assay: Cytotoxicity against tumor lines: HT-29; assay type: cell-based; settings: Homo sapiens, compound alone
Protocol: (§1) Cells from various tumor-derived cell lines were incubated with doxorubicin or 3099DOX, the latter in the presence or absence of FAP, and the EC50 for each was determined.

[8] = system: BxPC-3; assay: Cytotoxicity against tumor lines: BxPC-3; assay type: cell-based; settings: Homo sapiens, compound alone
Protocol: as §1

[9] = system: HEK-Mock; assay: Cytotoxicity against tumor lines: HEK-Mock; assay type: cell-based; settings: Homo sapiens, compound alone
Protocol: as §1

[10] = system: HPAF-II; assay: Cytotoxicity against tumor lines: HPAF-II; assay type: cell-based; settings: Homo sapiens, compound alone
Protocol: as §1

[11] = system: HEK-mFAP; assay: Cytotoxicity against tumor lines: HEK-mFAP; assay type: cell-based; settings: Homo sapiens, compound alone
Protocol: as §1

[12] = 5061DOX assay 2, 72 hour incubation, read-out: EC50 (prodrug alone)
[13] = read-out: EC50 (prodrug + 25 nM FAP)
[14] = read-out: EC50 (prodrug + 100 uM 5057)
[15] = read-out: EC50 (doxorubicin alone)

**Q.** Which EC50 ([1]; 5061DOX assay 1, 72 hour incubation, read-out: EC50 (prodrug + 25 nM FAP)) does the source give for `COc1cccc2c1C(=O)c1c(O)c3c(c(O)c1C2=O)C[C@@](O)(C(=O)CO)C[C@@H]3OC1CC(NC(=O)[C@@H]2CCCN2C(=O)[C@@H](C)NC(=O)c2ccnc3cccc(Br)c23)C(O)C(C)O1` (stereo partly drawn) [Compound 5061DOX] here?
**A.** 280 nM

**Q.** And the EC50 ([1]; 5061DOX assay 1, 72 hour incubation, read-out: EC50 (prodrug + 50 nM PREP))?
**A.** > 100000 nM

**Q.** And the EC50 ([1]; 5061DOX assay 1, 72 hour incubation, read-out: EC50 (prodrug + 100 uM 5057))?
**A.** > 100000 nM

**Q.** What about the EC50 ([1]; 5061DOX assay 1, 72 hour incubation, read-out: EC50 (prodrug alone)) of the same compound?
**A.** > 100000 nM

**Q.** What about the EC50 ([1]; 5061DOX assay 2, 72 hour incubation, read-out: EC50 (prodrug + 25 nM FAP)) of the same compound?
**A.** 250 nM

**Q.** What about the EC50 [1, 12] of the same compound?
**A.** > 100000 nM

**Q.** And the EC50 ([2]; MCF7, 5061DOX assay 2, 72 hour incubation, read-out: EC50 (prodrug + 25 nM FAP))?
**A.** > 100 µM

**Q.** And the EC50 ([2]; MCF7, 5061DOX assay 2, 72 hour incubation, read-out: EC50 (prodrug + 100 uM 5057))?
**A.** > 100 µM

**Q.** And the EC50 ([2]; MCF7, 5061DOX assay 2, 72 hour incubation, read-out: EC50 (prodrug alone))?
**A.** > 100 µM

**Q.** What about the IC50 [3] of the same compound?
**A.** > 10 µM

**Q.** And the EC50 ([4]; 5061DOX assay 2, 72 hour incubation, read-out: EC50 (prodrug + 100 uM 5057))?
**A.** > 100000 nM

**Q.** What about the EC50 [4, 12] of the same compound?
**A.** > 100000 nM

**Q.** What about the EC50 ([4]; Homo sapiens, 5061DOX assay 1, 72 hour incubation, read-out: EC50 (prodrug + 100 uM 5057)) of the same compound?
**A.** > 100000 nM

**Q.** What about the EC50 ([4]; Homo sapiens, 5061DOX assay 1, 72 hour incubation, read-out: EC50 (prodrug alone)) of the same compound?
**A.** > 100000 nM

**Q.** What about the EC50 [5, 13] of the same compound?
**A.** 1500 nM

**Q.** And the EC50 [5, 14]?
**A.** > 100000 nM

**Q.** And the EC50 ([5]; read-out: EC50 (prodrug alone))?
**A.** > 100000 nM

**Q.** And the EC50 [6, 13]?
**A.** 900 nM

**Q.** What about the EC50 [6, 14] of the same compound?
**A.** > 100000 nM

**Q.** What about the EC50 ([6]; read-out: EC50 (prodrug alone)) of the same compound?
**A.** > 100000 nM

**Q.** Which results are given for `COc1cccc2c1C(=O)c1c(O)c3c(c(O)c1C2=O)C[C@@](O)(C(=O)CO)C[C@@H]3O[C@H]1C[C@H](N)[C@H](O)[C@H](C)O1` [doxorubicin, reference compound]?
**A.** EC50 ([1]; 5057DOX assay 1, 72 hour incubation, read-out: EC50 (doxorubicin alone)): 36 nM; EC50 ([1]; 5057DOX assay 2, 72 hour incubation, read-out: EC50 (doxorubicin alone)): 34 nM; EC50 ([1]; 5057DOX assay 3, 72 hour incubation, read-out: EC50 (doxorubicin alone)): 95 nM; EC50 ([1]; 5057DOX assay 4, 72 hour incubation, read-out: EC50 (doxorubicin alone)): 92 nM; EC50 ([1]; 5061DOX assay 1, 72 hour incubation, read-out: EC50 (doxorubicin alone)): 92 nM; EC50 [7]: 400 nM; EC50 [8]: 3.1 µM; EC50 ([2]; MCF7, 5057DOX assay 5, 72 hour incubation, read-out: EC50 (doxorubicin alone)): 54 µM; EC50 [9]: 50 nM; EC50 ([4]; Homo sapiens, 72 h, 5057DOX assay 2, 72 hour incubation, read-out: EC50 (doxorubicin alone)): 59 nM; EC50 ([4]; Homo sapiens, 72 h, 5057DOX assay 3, 72 hour incubation, read-out: EC50 (doxorubicin alone)): 240 nM; EC50 ([4]; Homo sapiens, 72 h, 5057DOX assay 4, 72 hour incubation, read-out: EC50 (doxorubicin alone)): 420 nM; EC50 ([4]; Homo sapiens, 72 h, 5057DOX assay 8, 72 hour incubation, read-out: EC50 (doxorubicin)): 400 nM; EC50 ([4]; Homo sapiens, 72 h, 5061DOX assay 1, 72 hour incubation, read-out: EC50 (doxorubicin alone)): 420 nM; EC50 ([4]; Homo sapiens, 72 h, 5107DOX assay, 72 hour incubation, read-out: EC50 (doxorubicin)): 390 nM; EC50 [5, 15]: 1700 nM; EC50 [10]: 2000 nM; EC50 [11]: 200 nM; EC50 [6, 15]: 440 nM
